Reference: ChEMBL document CHEMBL5291721, “A preclinical secondary pharmacology resource illuminates target-adverse drug reaction associations of marketed drugs” (Nat Commun, 2023)

Key:
[1] = molecular target: Voltage-gated inwardly rectifying potassium channel KCNH2 (Homo sapiens, UniProt Q12809); assay type: functional; details: read-out: AC50
[2] = molecular target: Sodium-dependent dopamine transporter (Homo sapiens, UniProt Q01959)
Adenosine receptor A1 = molecular target: T1, Adenosine receptor A1 (Homo sapiens, UniProt P30542)
T1 sequence (P30542 whole entry): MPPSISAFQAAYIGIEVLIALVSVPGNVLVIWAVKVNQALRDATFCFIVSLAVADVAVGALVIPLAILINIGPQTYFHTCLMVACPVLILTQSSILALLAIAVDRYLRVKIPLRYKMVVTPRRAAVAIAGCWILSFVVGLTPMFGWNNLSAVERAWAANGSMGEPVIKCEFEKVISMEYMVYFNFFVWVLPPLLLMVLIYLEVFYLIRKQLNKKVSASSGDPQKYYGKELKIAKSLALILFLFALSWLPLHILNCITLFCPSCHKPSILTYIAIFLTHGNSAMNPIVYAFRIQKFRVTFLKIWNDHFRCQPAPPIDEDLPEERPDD

[3] = molecular target: T2, Muscarinic acetylcholine receptor M2 (Homo sapiens, UniProt P08172); assay type: functional, cell-based
T2 sequence (P08172 whole entry): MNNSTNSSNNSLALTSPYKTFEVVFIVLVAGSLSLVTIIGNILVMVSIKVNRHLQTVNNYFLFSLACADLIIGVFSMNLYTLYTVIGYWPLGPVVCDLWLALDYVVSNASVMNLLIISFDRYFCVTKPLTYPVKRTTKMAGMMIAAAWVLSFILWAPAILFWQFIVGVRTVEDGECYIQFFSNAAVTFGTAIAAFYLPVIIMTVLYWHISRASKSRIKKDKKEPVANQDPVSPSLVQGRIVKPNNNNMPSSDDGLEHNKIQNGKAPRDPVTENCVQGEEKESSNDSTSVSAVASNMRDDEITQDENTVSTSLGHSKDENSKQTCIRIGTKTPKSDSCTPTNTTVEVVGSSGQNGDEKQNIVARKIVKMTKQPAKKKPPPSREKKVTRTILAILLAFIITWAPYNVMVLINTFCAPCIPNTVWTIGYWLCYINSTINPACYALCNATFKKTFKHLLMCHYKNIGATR

[4] = molecular target: Neuronal acetylcholine receptor subunit alpha-4 (Homo sapiens, UniProt P43681)
[5] = molecular target: T3, Alpha-2A adrenergic receptor (Homo sapiens, UniProt P08913); assay type: functional, cell-based
T3 sequence (P08913 whole entry): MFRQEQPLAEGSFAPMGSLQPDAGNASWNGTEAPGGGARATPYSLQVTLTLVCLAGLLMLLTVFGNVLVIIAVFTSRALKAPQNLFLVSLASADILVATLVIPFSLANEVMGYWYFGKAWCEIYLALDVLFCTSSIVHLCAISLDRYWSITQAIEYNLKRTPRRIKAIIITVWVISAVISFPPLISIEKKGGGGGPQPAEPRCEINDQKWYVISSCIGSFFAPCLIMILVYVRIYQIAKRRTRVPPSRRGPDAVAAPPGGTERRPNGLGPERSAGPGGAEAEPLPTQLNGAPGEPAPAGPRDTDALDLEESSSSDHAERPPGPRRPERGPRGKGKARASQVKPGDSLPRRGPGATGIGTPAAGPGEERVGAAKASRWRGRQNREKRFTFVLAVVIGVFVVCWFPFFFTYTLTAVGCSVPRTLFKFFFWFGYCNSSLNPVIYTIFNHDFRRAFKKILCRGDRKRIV

[6] = molecular target: Gamma-aminobutyric acid receptor subunit alpha-1 (Rattus norvegicus, UniProt P62813); assay type: functional
[7] = molecular target: T4, Equilibrative nucleoside transporter 1 (Homo sapiens, UniProt Q99808)
T4 sequence (Q99808 whole entry): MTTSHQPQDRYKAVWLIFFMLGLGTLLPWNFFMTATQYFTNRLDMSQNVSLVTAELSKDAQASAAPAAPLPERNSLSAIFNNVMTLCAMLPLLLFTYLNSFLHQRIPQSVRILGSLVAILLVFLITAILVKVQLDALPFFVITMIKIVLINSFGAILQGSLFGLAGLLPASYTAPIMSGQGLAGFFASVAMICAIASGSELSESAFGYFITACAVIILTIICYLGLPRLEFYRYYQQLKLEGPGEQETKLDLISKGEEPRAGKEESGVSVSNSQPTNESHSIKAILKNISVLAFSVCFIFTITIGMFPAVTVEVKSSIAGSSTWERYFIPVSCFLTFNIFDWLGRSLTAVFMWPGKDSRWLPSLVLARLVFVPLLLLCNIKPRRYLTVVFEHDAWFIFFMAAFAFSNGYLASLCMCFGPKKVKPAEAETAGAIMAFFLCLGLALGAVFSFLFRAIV

Adenosine receptor A2a = Adenosine receptor A2a (Homo sapiens, UniProt P29274)
[8] = molecular target: T5, Alpha-2C adrenergic receptor (Homo sapiens, UniProt P18825); assay type: functional
T5 sequence (P18825 whole entry): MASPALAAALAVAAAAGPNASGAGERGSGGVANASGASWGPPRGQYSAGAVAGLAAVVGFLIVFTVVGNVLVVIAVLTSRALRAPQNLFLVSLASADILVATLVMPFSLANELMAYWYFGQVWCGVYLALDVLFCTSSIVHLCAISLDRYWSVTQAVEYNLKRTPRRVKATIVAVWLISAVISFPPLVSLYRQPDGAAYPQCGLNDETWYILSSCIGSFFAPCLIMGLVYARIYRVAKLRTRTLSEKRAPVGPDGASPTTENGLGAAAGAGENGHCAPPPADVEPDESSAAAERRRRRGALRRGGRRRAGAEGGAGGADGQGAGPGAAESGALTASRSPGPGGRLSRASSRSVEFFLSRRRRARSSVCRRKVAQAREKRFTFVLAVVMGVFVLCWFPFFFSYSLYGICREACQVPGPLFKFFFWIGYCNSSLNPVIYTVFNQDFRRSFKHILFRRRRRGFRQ

Bile salt export pump = Bile salt export pump (Homo sapiens, UniProt O95342); assay type: functional

Measured: AC50
Further: assay procedure not described here.

Sequence of Neuronal acetylcholine receptor subunit alpha-4 (P43681 whole entry): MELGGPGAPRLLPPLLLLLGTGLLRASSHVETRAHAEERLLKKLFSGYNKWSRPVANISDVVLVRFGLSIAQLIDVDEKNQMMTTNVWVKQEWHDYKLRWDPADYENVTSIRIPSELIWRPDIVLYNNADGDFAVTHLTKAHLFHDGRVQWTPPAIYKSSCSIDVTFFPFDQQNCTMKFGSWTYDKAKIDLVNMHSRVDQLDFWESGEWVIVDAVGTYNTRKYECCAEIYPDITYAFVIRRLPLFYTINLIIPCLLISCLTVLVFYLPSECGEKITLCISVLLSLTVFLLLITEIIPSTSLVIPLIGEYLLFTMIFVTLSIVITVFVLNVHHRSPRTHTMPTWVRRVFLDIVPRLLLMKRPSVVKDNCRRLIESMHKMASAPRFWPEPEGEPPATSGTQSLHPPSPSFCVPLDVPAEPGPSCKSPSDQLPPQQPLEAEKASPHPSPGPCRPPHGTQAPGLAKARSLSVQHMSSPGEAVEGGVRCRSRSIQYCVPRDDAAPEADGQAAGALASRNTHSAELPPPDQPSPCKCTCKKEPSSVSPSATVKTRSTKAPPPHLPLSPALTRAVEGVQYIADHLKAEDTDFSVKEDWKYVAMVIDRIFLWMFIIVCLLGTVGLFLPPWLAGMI
Sequence of Sodium-dependent dopamine transporter (Q01959 whole entry): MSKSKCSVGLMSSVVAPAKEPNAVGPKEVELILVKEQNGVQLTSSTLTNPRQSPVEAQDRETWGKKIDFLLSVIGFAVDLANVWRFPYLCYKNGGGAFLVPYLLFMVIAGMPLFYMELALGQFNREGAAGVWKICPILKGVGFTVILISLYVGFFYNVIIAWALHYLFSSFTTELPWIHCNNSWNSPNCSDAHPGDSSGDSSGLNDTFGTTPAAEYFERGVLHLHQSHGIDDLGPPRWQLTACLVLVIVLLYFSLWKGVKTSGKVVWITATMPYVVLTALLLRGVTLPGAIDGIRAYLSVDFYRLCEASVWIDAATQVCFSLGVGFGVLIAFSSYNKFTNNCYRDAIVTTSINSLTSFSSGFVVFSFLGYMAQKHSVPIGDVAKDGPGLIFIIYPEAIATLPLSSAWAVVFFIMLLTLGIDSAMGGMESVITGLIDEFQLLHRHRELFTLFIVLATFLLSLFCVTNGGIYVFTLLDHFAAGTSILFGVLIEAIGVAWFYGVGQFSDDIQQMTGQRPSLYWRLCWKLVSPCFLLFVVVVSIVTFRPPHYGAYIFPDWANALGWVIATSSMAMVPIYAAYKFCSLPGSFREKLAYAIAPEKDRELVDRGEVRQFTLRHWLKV
Sequence of Bile salt export pump (O95342 whole entry): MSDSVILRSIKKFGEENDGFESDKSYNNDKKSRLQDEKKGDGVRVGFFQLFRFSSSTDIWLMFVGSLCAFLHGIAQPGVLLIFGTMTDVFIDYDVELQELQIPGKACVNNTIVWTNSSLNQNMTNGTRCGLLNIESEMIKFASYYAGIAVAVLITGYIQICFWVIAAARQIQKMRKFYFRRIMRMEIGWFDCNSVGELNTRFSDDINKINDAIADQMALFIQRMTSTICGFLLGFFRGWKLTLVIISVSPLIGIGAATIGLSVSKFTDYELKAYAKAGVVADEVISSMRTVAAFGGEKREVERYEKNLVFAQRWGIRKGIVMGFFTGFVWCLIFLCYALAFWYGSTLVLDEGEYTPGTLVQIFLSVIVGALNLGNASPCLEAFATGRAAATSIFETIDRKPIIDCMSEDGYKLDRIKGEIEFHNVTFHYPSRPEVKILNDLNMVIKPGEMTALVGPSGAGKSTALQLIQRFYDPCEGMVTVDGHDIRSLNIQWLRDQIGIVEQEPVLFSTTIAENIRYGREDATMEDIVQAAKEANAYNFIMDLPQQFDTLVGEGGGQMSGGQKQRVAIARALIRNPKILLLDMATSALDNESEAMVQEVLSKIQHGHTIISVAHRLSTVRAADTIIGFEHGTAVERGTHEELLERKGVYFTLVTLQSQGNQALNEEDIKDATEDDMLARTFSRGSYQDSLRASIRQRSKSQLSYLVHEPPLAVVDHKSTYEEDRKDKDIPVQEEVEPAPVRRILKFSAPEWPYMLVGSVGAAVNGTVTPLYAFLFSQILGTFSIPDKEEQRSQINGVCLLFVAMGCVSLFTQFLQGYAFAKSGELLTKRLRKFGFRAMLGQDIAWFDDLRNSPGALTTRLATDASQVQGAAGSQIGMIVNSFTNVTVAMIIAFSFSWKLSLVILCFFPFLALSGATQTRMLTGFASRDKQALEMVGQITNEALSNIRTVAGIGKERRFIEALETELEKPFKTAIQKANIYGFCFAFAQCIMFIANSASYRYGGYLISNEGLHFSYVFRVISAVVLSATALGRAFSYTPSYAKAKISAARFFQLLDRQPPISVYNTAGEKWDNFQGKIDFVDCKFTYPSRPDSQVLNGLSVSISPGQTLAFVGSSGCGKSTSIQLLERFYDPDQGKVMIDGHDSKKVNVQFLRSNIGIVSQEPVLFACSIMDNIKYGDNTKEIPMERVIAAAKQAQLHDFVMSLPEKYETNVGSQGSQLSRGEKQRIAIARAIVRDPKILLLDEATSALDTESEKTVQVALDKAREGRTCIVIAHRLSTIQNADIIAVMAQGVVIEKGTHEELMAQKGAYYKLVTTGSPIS
Sequence of Adenosine receptor A2a (P29274 whole entry): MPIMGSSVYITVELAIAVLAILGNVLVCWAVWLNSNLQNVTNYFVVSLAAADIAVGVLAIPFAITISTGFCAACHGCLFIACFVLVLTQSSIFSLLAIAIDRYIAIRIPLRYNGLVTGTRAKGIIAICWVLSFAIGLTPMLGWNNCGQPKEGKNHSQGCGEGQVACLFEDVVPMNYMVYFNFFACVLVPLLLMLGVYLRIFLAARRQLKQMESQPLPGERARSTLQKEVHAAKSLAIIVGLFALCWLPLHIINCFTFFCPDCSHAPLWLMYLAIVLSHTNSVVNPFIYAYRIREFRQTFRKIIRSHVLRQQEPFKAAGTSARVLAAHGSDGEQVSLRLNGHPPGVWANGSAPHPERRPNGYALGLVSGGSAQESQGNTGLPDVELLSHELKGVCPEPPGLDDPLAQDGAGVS
Sequence of Gamma-aminobutyric acid receptor subunit alpha-1 (P62813 whole entry): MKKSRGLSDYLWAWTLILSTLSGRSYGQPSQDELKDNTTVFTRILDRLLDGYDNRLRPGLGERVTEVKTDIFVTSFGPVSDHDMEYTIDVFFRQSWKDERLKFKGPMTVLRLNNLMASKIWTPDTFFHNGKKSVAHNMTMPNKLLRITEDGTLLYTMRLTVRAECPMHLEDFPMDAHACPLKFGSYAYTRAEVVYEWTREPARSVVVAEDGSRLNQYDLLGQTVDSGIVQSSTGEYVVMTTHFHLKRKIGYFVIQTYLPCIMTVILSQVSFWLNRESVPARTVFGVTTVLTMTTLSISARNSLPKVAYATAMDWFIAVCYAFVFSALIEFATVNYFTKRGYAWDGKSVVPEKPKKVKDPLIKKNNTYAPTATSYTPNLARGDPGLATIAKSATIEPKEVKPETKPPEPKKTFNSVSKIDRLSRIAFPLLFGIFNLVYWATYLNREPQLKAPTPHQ
Sequence of Voltage-gated inwardly rectifying potassium channel KCNH2 (Q12809 whole entry): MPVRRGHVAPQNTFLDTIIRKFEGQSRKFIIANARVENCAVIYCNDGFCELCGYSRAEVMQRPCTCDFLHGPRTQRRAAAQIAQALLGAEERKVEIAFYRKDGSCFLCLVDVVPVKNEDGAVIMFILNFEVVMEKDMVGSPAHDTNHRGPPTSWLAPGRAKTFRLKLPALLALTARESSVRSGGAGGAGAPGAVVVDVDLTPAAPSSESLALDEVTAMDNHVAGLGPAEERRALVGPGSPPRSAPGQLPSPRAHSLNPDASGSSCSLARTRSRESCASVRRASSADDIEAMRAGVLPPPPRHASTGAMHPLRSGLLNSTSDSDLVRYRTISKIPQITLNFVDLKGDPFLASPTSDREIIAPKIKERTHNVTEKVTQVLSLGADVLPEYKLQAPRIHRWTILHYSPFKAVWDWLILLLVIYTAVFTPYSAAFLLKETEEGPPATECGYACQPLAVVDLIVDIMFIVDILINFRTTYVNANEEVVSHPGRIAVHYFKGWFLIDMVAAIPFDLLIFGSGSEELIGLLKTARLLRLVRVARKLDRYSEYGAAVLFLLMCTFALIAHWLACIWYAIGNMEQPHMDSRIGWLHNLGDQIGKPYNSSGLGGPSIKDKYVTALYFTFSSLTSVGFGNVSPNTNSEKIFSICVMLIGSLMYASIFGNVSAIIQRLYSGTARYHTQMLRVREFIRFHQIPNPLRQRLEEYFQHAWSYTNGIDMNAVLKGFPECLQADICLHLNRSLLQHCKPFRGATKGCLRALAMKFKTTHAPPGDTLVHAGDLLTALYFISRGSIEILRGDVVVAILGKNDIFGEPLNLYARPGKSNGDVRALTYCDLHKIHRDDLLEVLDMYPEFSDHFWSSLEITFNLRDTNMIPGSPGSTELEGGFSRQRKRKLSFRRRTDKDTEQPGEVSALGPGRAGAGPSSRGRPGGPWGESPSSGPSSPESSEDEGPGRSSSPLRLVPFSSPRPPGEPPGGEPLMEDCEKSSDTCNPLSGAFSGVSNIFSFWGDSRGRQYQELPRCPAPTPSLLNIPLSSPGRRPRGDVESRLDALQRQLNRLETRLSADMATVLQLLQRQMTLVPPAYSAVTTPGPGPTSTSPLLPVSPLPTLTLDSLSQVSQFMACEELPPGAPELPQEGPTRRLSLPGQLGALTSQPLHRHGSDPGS

CC(=O)c1ccc2c(c1)N(CCCN1CCN(CCO)CC1)c1ccccc1S2 [ACETOPHENAZINE]
> 300 µM: Bile salt export pump
1.2 µM: [5]
25 µM: [2]
2.3 µM: [1]
0.72 µM: [8]
> 30 µM: all other assays above

Oc1ncnc2[nH]ncc12 [ALLOPURINOL]
> 30 µM: [1] | Adenosine receptor A1 | [7] | Adenosine receptor A2a
> 300 µM: Bile salt export pump
> 10 µM: all other assays above

COC(=O)N[C@H](C(=O)N[C@@H](Cc1ccccc1)[C@@H](O)CN(Cc1ccc(-c2ccccn2)cc1)NC(=O)[C@@H](NC(=O)OC)C(C)(C)C)C(C)(C)C [ATAZANAVIR]
> 10 µM: [3] | [5] | [6] | [8]
2 µM: Bile salt export pump
> 30 µM: all other assays above

CC(C)NCC(O)COc1ccc(COCCOC(C)C)cc1 (stereo unspecified) [BISOPROLOL]
> 30 µM: [1] | Adenosine receptor A1 | [7] | Adenosine receptor A2a
> 300 µM: Bile salt export pump
> 10 µM: all other assays above

N[C@@H](C(=O)N[C@@H]1C(=O)N2C(C(=O)O)=C(Cl)CS[C@H]12)c1ccccc1 [CEFACLOR ANHYDROUS]
> 300 µM: Bile salt export pump
> 30 µM: all other assays above

O=C(O)c1cc(-c2ccc(F)cc2F)ccc1O [DIFLUNISAL]
160 µM: Bile salt export pump
> 30 µM: [1]
> 10 µM: all other assays above

COC(=O)[C@@H]1CC2=CC(=O)CC[C@]2(C)[C@@]23O[C@@H]2C[C@@]2(C)[C@@H](CC[C@@]24CCC(=O)O4)[C@H]13 [EPLERENONE]
> 300 µM: Bile salt export pump
> 10 µM: [6]
> 30 µM: all other assays above

C[C@@H]1O[C@@H]1P(=O)(O)O [FOSFOMYCIN]
> 300 µM: Bile salt export pump
> 30 µM: [1]
> 10 µM: all other assays above

COc1ccc2c(c1)C(=O)N(CCc1ccc(S(=O)(=O)NC(=O)NC3CCCCC3)cc1)C(=O)C2(C)C [GLIQUIDONE]
1.7 µM: Bile salt export pump
> 30 µM: all other assays above

NS(=O)(=O)c1cc2c(cc1Cl)NCNS2(=O)=O [HYDROCHLOROTHIAZIDE]
> 30 µM: [1] | Adenosine receptor A1 | [7] | Adenosine receptor A2a
> 300 µM: Bile salt export pump
> 10 µM: all other assays above

CC(C)Cc1ccc(CC(=O)O)cc1 [IBUFENAC]
> 300 µM: Bile salt export pump
> 30 µM: all other assays above

CC(C)NNC(=O)c1ccncc1 [IPRONIAZID]
> 300 µM: Bile salt export pump
> 30 µM: all other assays above

NC[C@H]1O[C@H](O[C@H]2[C@H](O)[C@@H](O[C@H]3O[C@H](CO)[C@@H](O)[C@H](N)[C@H]3O)[C@H](N)C[C@@H]2N)[C@H](O)[C@@H](O)[C@@H]1O [KANAMYCIN]
> 300 µM: Bile salt export pump
> 30 µM: [1] | [8]
> 10 µM: all other assays above

CN1C(=O)CC(C)(c2ccccc2)C1=O (stereo unspecified) [METHSUXIMIDE]
> 30 µM: [1]
> 300 µM: Bile salt export pump
> 10 µM: all other assays above

C[C@H]1C[C@@H]2[C@H]([C@@H](O)C[C@@]3(C)[C@H]2CC[C@]3(O)C(=O)CO)[C@@]2(C)C=CC(=O)C=C12 [METHYLPREDNISOLONE]
> 30 µM: [1] | [8]
140 µM: Bile salt export pump
> 10 µM: all other assays above

CC(C)(C(=O)c1cccnc1)c1cccnc1 [METYRAPONE]
> 30 µM: [1]
280 µM: Bile salt export pump
> 10 µM: all other assays above
